As usually defined, the pEC50 is −log10 of the EC50, conventionally taken in molar units. In general, IC20 refers to the concentration needed for an effect of 20%. Usually pIC50 stands for the negative decadic logarithm of the IC50, by convention in mol/L.

Each structure is given as a SMILES string. pEC50, pIC50: −log10 of the molar value.

Test [1] addresses T1, MMP-2 enzyme isolated from rat heart (Rattus norvegicus, UniProt P33436).
T1 construct: we used full-length, active MMP-2 enzymes isolated from healthy young adult rat hearts; from tissue; host or cells: rat heart homogenate (healthy young adult rats)
T1 sequence (P33436 110-662): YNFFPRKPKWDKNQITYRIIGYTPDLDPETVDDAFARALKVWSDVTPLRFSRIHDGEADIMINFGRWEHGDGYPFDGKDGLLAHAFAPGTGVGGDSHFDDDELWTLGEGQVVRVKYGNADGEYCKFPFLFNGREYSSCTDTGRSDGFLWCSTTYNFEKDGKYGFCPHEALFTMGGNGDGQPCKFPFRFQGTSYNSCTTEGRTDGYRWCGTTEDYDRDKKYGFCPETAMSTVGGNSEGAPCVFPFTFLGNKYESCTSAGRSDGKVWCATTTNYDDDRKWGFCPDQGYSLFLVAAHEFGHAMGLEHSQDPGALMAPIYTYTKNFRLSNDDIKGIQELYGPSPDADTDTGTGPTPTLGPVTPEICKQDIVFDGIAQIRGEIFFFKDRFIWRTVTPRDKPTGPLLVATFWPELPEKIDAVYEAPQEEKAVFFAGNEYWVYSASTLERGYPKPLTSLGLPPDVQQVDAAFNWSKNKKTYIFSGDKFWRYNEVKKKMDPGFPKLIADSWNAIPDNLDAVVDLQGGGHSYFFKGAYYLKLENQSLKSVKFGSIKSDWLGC
The test can be described thus: Gelatin zymography on cardiac MMP-2. In kind it is biochemical. How it is done:
Gelatin zymography was performed as described previously (Kupai et al., [2010]; Bencsik et al., [2017]). MMP-2 was isolated from rat heart homogenates as follows: 50 μg protein/lane were loaded and separated by electrophoresis under non-reducing conditions on an 8% SDS-polyacrylamide gels copolymerized with 2 mg/ml gelatin from porcine skin (Sigma-Aldrich; St. Louis, MO). After electrophoresis, gels were washed in 2.5% Triton-X 100 with gentle agitation and then incubated for 20 h at 37°C in zymography development buffer (50 mM Tris-HCl, pH 7.5, containing 5 mM CaCl2, 200 mM NaCl) in the presence or abscence of the MMP inhibitor compounds. Zymographic gels were stained in a 0.05% Coomassie Brilliant Blue R-250 solution followed by destaining, and then zymograms were scanned. MMP activity was detected as a colorless transparent zone on a blue background and the clear bands in the gel were quantified by densitometry using the Quantity One software (Bio-Rad, Hercules, CA). The obtained density values were measured and percentage of inhibition values were then calculated.
To confirm the MTS screen results, we tested the potential MMP inhibitor molecules on MMP-2 enzyme isolated from rat heart in vitro. Therefore, we applied the MMPIs at 1 and 100 μM final concentration in the enzyme's development buffer (Table 3).
After the chemical optimization of the novel MMP inhibitor lead candidates, we determined their IC50 values by using gelatin zymography. During zymographic analysis, we used full-length, active MMP-2 enzymes isolated from healthy young adult rat hearts. Subsequently, the cardio-cytoprotective effects of the selected candidates having the lowest IC50 values to MMP-2 were tested in cultured neonatal cardiac myocytes subjected to simulated I/R injury. Cardiac myocyte cell culture assay allowed a relatively high throughput biological efficacy testing (Gorbe et al., [2010]) of the selected lead candidates in several dose ranges at different levels of inhibition of MMP-2 activity.

For test [2], the system named is neonatal rat cardiac myocytes. The test can be described thus: Cell viability of neonatal rat cardiac myocytes subjected to simulated ischemia/reperfusion. The class given is cell-based. The note with it: comparison among the tested lead candidates. How it is done: For our cell viability experiments, 3 day-old cardiomyocytes plated onto 24-well plates were tested under normoxic condition or subjected to simulated ischemia (SI). The normoxic cardiomyocytes were kept under normoxic conditions, i.e., the growth medium was changed to a normoxic solution (in mM: NaCl 125, KCl 5.4, NaH2PO4 1.2, MgCl2 0.5, HEPES 20, glucose 15, taurine 5, CaCl2 1, creatine 2.5, BSA 0.1%, pH 7.4, 310 mOsm/l) (Li et al., [2004]) and the cells were incubated under 95% air and 5% CO2 at 37°C for 2.5 h. […] The cells were then subjected to the following treatments during SI or normoxic protocol: vehicle control or MMP inhibitors at different doses calculated according to IC doses in vitro. […]
Figure 3 Experimental protocol for cell culture studies and for the ex vivo rat heart model of AMI. […] At the end of the reperfusion, cell viability was determined by using calcein flurescence. […] Subsequently, 2 h reperfusion was applied and then infarct size was determined. […]
Cell viability was assessed by a calcein and propidium iodine assay performed in each group after 2 h reoxygenation. […] Then the calcein solution was replaced with fresh PBS and the fluorescence intensity of each well was detected by a fluorescent plate reader (FluoStar Optima, BMG Labtech, Ortenberg, Germany). […]

`O=C(O)c1c[nH]c(CN(Cc2ccc(F)cc2)Cc2ccc(OCc3ccccc3)cc2)n1` [MMPI-1154]: the inhibition at 100 µM in test [1] (100 μM, cardiac MMP-2, gelatin zymography, read-out: Inhibition (%)±SEM at 100 μM final MMP inhibitor concentration) was found to be 100%. Further, the pEC50 in test [1] (concentration labelled EC50 in Supplementary Figure 4, doses calculated according to IC doses in vitro) was 5.60. In test [1] (concentration used in the ex vivo model, read-out: IC20 value (MMP-2 inhibition)), the IC20 turned out to be 1000 nM. Moreover, in test [1] (most effective concentration in cell culture experiments, read-out: IC50 value (MMP-2 inhibition)), the pIC50 was 5.60. The “increase in cell viability during simulated I/R” value in test [2] is given as “highest increase in cell viability”.
